Data set [1] relates to Mus musculus. Description: Improvement in learning and spatial memory in mouse harboring APP/PSI/Tau assessed as improvement in trajectory at […], po for 30 consecutive days and studied for 5 days by Morris water maze test relative to control. Type of data set: functional, organism-based. The settings on record: time 5.0 day.
Data set [2] concerns the target T1, Glycogen synthase kinase-3 beta (Homo sapiens, UniProt P49841). Description: biochemical. Type of data set: cell-based, Sf9.
Target sequence in this assay (P49841 whole entry): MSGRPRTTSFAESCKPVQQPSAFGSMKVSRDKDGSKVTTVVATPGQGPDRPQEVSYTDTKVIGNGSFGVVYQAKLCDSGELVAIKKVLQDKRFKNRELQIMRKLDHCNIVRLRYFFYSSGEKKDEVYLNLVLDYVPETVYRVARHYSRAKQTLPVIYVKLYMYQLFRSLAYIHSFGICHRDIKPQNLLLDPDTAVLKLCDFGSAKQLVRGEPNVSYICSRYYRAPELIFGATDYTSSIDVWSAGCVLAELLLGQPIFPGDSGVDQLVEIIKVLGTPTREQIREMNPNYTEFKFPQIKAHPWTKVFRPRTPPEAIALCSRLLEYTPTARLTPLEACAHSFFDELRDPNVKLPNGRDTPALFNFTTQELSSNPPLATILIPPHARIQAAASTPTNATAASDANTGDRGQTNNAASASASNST
The next data set deals with SH-SY5Y. Description: Reduction in neurofibrillary tangles formation in OKA-treated human SH-SY5Y cells at 250 to 1000 nM by Western blot analysis. The class given is functional, cell-based. As to conditions: dose 250-1000 nM. (In general: Immunoblotting shows a protein as a band on a membrane.)
Data set [3] concerns the target T1, Glycogen synthase kinase-3 beta. Nature of the data set: Inhibition of human full length GSK3beta expressed in baculovirus in Sf9 insect cells assessed as enzyme activity using YRRAAVPPSPSLSRHSSPHQ(pS)EDEEE as substrate at 0.7 uM by ADP-Glo kinase assay relative to control. Also noted: scale not given: the % may be the effect or the level left. Background: In ADP-Glo the light output rises with the ADP produced.
Target sequence in this assay (P49841 whole entry, looked up): as the sequence (P49841 whole entry) above

Data set [4] concerns Mus musculus. Description: Cognitive enhancing effect in mouse harboring APP/PSI/Tau assessed as improvement in number of crossing the virtual platform at 10 to 30 mg/kg, po for 30 consecutive days and studied for 5 days by Morris water maze test relative to control. As to conditions: dose 10-30 mg/kg, time 30.0 day. Type of data set: functional, organism-based.
Data set [5] can be described thus: Neurotoxicity against human SH-SY5Y cells assessed as cell viability at 10 uM measured for 24 to 72 hrs by MTT assay. The class given is cell-based. As to conditions: time 24-72 hrs. A general note: Tetrazolium assays rely on reduction of a dye to a coloured formazan, in cell work by metabolically active cells.
For another data set, the system named is L02. Nature of the data set: Cytotoxicity against human HL7702 cells assessed as cell viability measured at 5 to 20 uM for 24 to 72 hrs by MTT assay. Type of data set: cell-based. The settings on record: l02, 20 µM, dose lower 5 µM, time lower 24 hrs, dose upper 20 µM, time upper 72 hrs.
Data set [6] has as its target T1, Glycogen synthase kinase-3 beta. Nature of the data set: Inhibition of GSK3beta phosphorylation expression in human SH-SY5Y cells at 250 to 1000 nM by Western blot analysis. Type of data set: cell-based. As to conditions: dose 250-1000 nM.
Target sequence in this assay (P49841 whole entry, looked up): as the sequence (P49841 whole entry) above
The target is the same in data set [7]. Nature of the data set: Inhibition of GSK3beta in human SH-SY5Y cells assessed as decrease in OKA-induce tau-S396 hyperphosphorylation at 250 to 1000 nM by Western blot analysis. Type of data set: cell-based. As to conditions: dose 250-1000 nM.
Target sequence in this assay (P49841 whole entry, looked up): as the sequence (P49841 whole entry) above
Data set [8] in a line: Neurotoxicity against human SH-SY5Y cells assessed as cell viability at 15 to 20 uM measured for 36 to 72 hrs by MTT assay. Type of data set: cell-based. As to conditions: dose lower 15 µM, time lower 36 hrs, dose upper 20 µM, time upper 72 hrs.
Data set [9] relates to Mus musculus. Nature of the data set: Improvement in learning and spatial memory in mouse harboring APP/PSI/Tau assessed as decrease in escape latency at 10 to 30 mg/kg, po for 30 consecutive days and studied for 5 days by Morris water maze test relative to control. Type of data set: functional, organism-based. As to conditions: dose 10-30 mg/kg, time 30.0 day.
Data set [10] in a line: Permeability of compound by PAMPA-BBB assay.
The target in data set [11] is Dual specificity tyrosine-phosphorylation-regulated kinase 1A (Homo sapiens) (UniProt Q13627). Nature of the data set: Inhibition of DYRK1A in human SH-SY5Y cells assessed as decrease in OKA-induce DYRK1A-Tyr321/27 hyperphosphorylation at 250 to 1000 nM by Western blot analysis. The class given is cell-based. The settings on record: dose 250-1000 nM.
The target of data set [12] is T1, Glycogen synthase kinase-3 beta. Description: Inhibition of human full length GSK3beta expressed in baculovirus in Sf9 insect cells assessed as enzyme activity using YRRAAVPPSPSLSRHSSPHQ(pS)EDEEE as substrate at 0.14 uM by ADP-Glo kinase assay relative to control. Also noted: scale not given: the % may be the effect or the level left.
Target sequence in this assay (P49841 whole entry, looked up): as the sequence (P49841 whole entry) above
Data set [13] relates to Mus musculus. Description: Cognitive enhancing effect in mouse harboring APP/PSI/Tau assessed as improvement in time spent in the platform quadrant at 10 to 30 mg/kg, po for 30 consecutive days and studied for 5 days by Morris water maze test relative to control. The class given is functional, organism-based. The settings on record: dose 10-30 mg/kg, time 30.0 day.
The target of data set [14] is T1, Glycogen synthase kinase-3 beta. Description: Inhibition of GSK3beta in human SH-SY5Y cells assessed as increase in OKA-induce GSK3beta at serine 9 hyperphosphorylation by Western blot analysis. The class given is cell-based.
Target sequence in this assay (P49841 whole entry, looked up): as the sequence (P49841 whole entry) above
In data set [15] the test system is Mus musculus. Nature of the data set: Improvement in learning and spatial memory in mouse harboring APP/PSI/Tau assessed as improvement in trajectory at 20 mg/kg, po for 30 consecutive days and studied for 5 days by Morris water maze test relative to control. The settings on record: time 30.0 day. Type of data set: functional, organism-based.
Data set [16] deals with Dual specificity tyrosine-phosphorylation-regulated kinase 1A (Rattus norvegicus, UniProt Q63470). Nature of the data set: Inhibition of rat recombinant DYRK1A expressed in Escherichia coli using RRRFRPASPLRGPPK as substrate by ADP-Glo kinase assay.

pIC50: −log10 of the molar value. Activity calls are given as the source filed them. No cut-off for these calls is given here.

Regarding `[Cl-].[Li+]`, in the data set on Mus musculus [1], the result was Active.

In general, pIC50 refers to −log10 of the IC50, conventionally taken in molar units. Take `O=C(Nc1cc2c(cn1)[nH]c1cc(OC(F)(F)F)ccc12)C1CC1`: the negative logarithm of the IC50 (pIC50) in [2] is under 5.00.

Take `COc1ccc(-c2ccc3c(c2)[nH]c2c(NC(=O)C4CC4)nccc23)cc1`: the negative-log IC50 (pIC50) in [2] was under 5.00.

For `O=C(Nc1cc2c(cn1)[nH]c1cc(Cl)ccc12)C1CC1`, the pIC50 in data set [2] was under 5.00.

A word on the Papp: it is the rate of passage across a membrane or cell layer, normalised by area and donor concentration. In the case of `COC(=O)c1ccc2c(c1)[nH]c1c(NC(=O)C3CC3)nccc12`, the outcome (in the data set on SH-SY5Y; in the data set with Mus musculus [4]; in data set [6]; in data set [7]; in the data set with Mus musculus [9]; in [11]) was Active. Also, in the data set with Mus musculus [13], the result was Active. For the same compound, the Activity was 1% in [3]; “Non-Toxic” in data set [5]; “Toxic” in the data set with L02; “Non-Toxic” in [8]; 10% in data set [12]; “Dose-Dependent Effect” in data set [14]. The compound further had a pIC50 in data set [2] of 7.15. Besides, the Papp in data set [10] is 16.5 ×10⁻⁶ cm/s.

In the case of `O=C(Nc1cc2c(cn1)[nH]c1cc(C(F)(F)F)ccc12)C1CC1`, the pIC50 in data set [2] is under 5.00.

As to `NC(=O)c1ccc2c(c1)[nH]c1cnc(NC(=O)C3CC3)cc12`, the pIC50 in data set [2] is under 5.00.

Turning to `COc1ccc2c(c1)[nH]c1cnc(C)cc12`, the pIC50 in data set [2] was under 5.00.

For the compound `O=C(Nc1nccc2c1[nH]c1cc(-c3ccccc3)ccc12)C1CC1`, the pIC50 in data set [2] was 5.18.

In the case of `Cn1c(=O)c2c(ncn2C)n(C)c1=O` [CAFFEINE], the apparent permeability coefficient (Papp) in data set [10] came out at 3.2 ×10⁻⁶ cm/s.

`O=C(Nc1nccc2c1[nH]c1cc(-c3cccnc3)ccc12)C1CC1` gave a pIC50 in data set [2] of under 5.00.

Turning to `O=Cc1ccc2c(c1)[nH]c1cnc(NC(=O)C3CC3)cc12`, the pIC50 in data set [2] is under 5.00.

Turning to `COc1ccc2c(c1)[nH]c1c(C)nccc12` [HARMINE], in the data set on Mus musculus [15], the outcome was Active. Besides, the Papp in data set [10] amounted to 44.6 ×10⁻⁶ cm/s.

`O=C(Nc1cc2c(cn1)[nH]c1cc(-c3cccnc3)ccc12)C1CC1` showed a pIC50 in data set [2] of under 5.00.

Take `O=C(Nc1nccc2c1[nH]c1cc(OC(F)(F)F)ccc12)C1CC1`: in [2], the pIC50 is 5.12.

In the case of `O=C(Nc1nccc2c1[nH]c1cc(F)ccc12)C1CC1`, the negative logarithm of the IC50 (pIC50) in data set [2] is 5.32. The same compound registered a Papp in [10] of 33.3 ×10⁻⁶ cm/s.

Consider `COc1ccc2c(c1)[nH]c1c(NC(=O)C3CC3)nccc12`, for which the pIC50 in data set [2] was 6.84. In data set [10], this compound came in with a Papp of 15.6 ×10⁻⁶ cm/s.

The compound `N#Cc1ccc2c(c1)[nH]c1c(NC(=O)C3CC3)nccc12` gave a negative-log IC50 (pIC50) in [2] of under 5.00.

In turn, `O=Cc1ccc2c(c1)[nH]c1c(NC(=O)C3CC3)nccc12` showed a pIC50 in data set [2] of 6.40. The compound further had a Papp in data set [10] of 14.3 ×10⁻⁶ cm/s.

Regarding `COC(=O)c1ccc2c(c1)[nH]c1cnc(NC(=O)C3CC3)cc12`, the pIC50 in [2] is under 5.00.

Turning to `CN[C@@H]1C[C@H]2O[C@@](C)([C@@H]1OC)n1c3ccccc3c3c4c(c5c6ccccc6n2c5c31)C(=O)NC4` [STAUROSPORINE], the pIC50 in data set [16] is 7.92.

Consider `N#Cc1ccc2c(c1)[nH]c1cnc(NC(=O)C3CC3)cc12`, for which, in [2], the negative-log IC50 (pIC50) is under 5.00.

In turn, `O=C(Nc1nccc2c1[nH]c1cc(Cl)ccc12)C1CC1` had a pIC50 in data set [2] of 5.29. The compound further gave a Papp in data set [10] of 21.5 ×10⁻⁶ cm/s.

In data set [2], `COc1ccc(-c2ccc3c(c2)[nH]c2cnc(NC(=O)C4CC4)cc23)cc1` had a pIC50 of under 5.00.

As to `O=C(Nc1nccc2c1[nH]c1cc(C(F)(F)F)ccc12)C1CC1`, the pIC50 in data set [2] is under 5.00.

As to `Clc1cccc(Cl)c1N=C1NCCN1` [CLONIDINE], the Papp in [10] came to 4 ×10⁻⁶ cm/s.

As to `COc1ccc2c(c1)[nH]c1cnc(NC(=O)C3CC3)cc12`, in [2], the pIC50 was 5.09.

`O=C(Nc1cc2c(cn1)[nH]c1cc(F)ccc12)C1CC1` gave a pIC50 in data set [2] of under 5.00.

In [2], `NC(=O)c1ccc2c(c1)[nH]c1c(NC(=O)C3CC3)nccc12` gave a pIC50 of 6.70. The compound further gave a Papp in [10] of 0.7 ×10⁻⁶ cm/s.
